The values that follow come from ChEMBL document CHEMBL5143541, “Novel structural-related analogs of PFI-3 (SRAPs) that target the BRG1 catalytic subunit of the SWI/SNF complex increase the activity of temozolomide in glioblastoma cells” (Bioorg Med Chem, 2022).

The test system of assay [1] is MT330. Description: Induction of cell death in human MT330 cells assessed as reduction in cell viability at 2 uM after 3 days by ELISA. The format is functional, cell-based. To be noted: time 3.0 day. (In general: In an ELISA, binding on a coated surface is turned into a signal by an enzyme label.)
In assay [2] the test system is MT330. As to the kind of experiment: Induction of cell death in human MT330 cells assessed as reduction in cell viability at 2 uM combination with TMZ after 3 days by ELISA. The format is functional, cell-based. To be noted: time 3.0 day.
The subject of assay [3] is MT330. Description: Anti-tumor activity against human MT330 cells xenografted in NSG mouse assessed as reduction in tumor growth at 10 mg/kg, ip for alterate days combination with TMZ and measured after 2 weeks. The format is functional, organism-based.
The subject of assay [4] is LN-229. Description: Antiproliferative activity against human LN-229 cells assessed as reduction in cell viability at 2 uM up to 7 days by incucyte live cell assay. The format is functional, cell-based. The note with it: time <= 7.0 day.
Assay [5] deals with LN-229. As to the kind of experiment: Antiproliferative activity against human LN-229 cells assessed as reduction in cell viability at 2 uM combination with TMZ up to 7 days by incucyte live cell assay. The format is functional, cell-based. To be noted: time <= 7.0 day.
The subject of assay [6] is MT330. As to the kind of experiment: Anti-tumor activity against human MT330 cells xenografted in NSG mouse assessed as reduction in tumor growth at 10 mg/kg, ip for alterate days combination with TMZ and measured after 8 weeks. The format is functional, organism-based. (Xenograft models place foreign cells or tissue in a host animal.)
Assay [7] has as its system LN-229. Description: Antiproliferative activity against human LN-229 cells assessed as reduction in cell viability at 80 uM up to 7 days by incucyte live cell assay. The format is functional, cell-based. The note with it: time <= 7.0 day.
Assay [8] deals with MT330. Description: Induction of cell death in human MT330 cells assessed as reduction in cell viability at 50 uM after 3 days by ELISA. The format is functional, cell-based. To be noted: time 3.0 day.
Assay [9] addresses SWI/SNF-related matrix-associated actin-dependent regulator of chromatin subfamily A member 4 (Homo sapiens) (UniProt P51532). As to the kind of experiment: Binding affinity to epitope-tagged BRG1 bromodomain (unknown origin) expressed in MT330 cells assessed as thermostability at < 54.2 degC at 30 uM for 2 hrs by […]. Format: cell-based.

Structures are written as SMILES. Activity calls are given as the source filed them. No cut-off for these calls is given here.

Chain of SWI/SNF-related matrix-associated actin-dependent regulator of chromatin subfamily A member 4 (Homo sapiens) (P51532 whole entry): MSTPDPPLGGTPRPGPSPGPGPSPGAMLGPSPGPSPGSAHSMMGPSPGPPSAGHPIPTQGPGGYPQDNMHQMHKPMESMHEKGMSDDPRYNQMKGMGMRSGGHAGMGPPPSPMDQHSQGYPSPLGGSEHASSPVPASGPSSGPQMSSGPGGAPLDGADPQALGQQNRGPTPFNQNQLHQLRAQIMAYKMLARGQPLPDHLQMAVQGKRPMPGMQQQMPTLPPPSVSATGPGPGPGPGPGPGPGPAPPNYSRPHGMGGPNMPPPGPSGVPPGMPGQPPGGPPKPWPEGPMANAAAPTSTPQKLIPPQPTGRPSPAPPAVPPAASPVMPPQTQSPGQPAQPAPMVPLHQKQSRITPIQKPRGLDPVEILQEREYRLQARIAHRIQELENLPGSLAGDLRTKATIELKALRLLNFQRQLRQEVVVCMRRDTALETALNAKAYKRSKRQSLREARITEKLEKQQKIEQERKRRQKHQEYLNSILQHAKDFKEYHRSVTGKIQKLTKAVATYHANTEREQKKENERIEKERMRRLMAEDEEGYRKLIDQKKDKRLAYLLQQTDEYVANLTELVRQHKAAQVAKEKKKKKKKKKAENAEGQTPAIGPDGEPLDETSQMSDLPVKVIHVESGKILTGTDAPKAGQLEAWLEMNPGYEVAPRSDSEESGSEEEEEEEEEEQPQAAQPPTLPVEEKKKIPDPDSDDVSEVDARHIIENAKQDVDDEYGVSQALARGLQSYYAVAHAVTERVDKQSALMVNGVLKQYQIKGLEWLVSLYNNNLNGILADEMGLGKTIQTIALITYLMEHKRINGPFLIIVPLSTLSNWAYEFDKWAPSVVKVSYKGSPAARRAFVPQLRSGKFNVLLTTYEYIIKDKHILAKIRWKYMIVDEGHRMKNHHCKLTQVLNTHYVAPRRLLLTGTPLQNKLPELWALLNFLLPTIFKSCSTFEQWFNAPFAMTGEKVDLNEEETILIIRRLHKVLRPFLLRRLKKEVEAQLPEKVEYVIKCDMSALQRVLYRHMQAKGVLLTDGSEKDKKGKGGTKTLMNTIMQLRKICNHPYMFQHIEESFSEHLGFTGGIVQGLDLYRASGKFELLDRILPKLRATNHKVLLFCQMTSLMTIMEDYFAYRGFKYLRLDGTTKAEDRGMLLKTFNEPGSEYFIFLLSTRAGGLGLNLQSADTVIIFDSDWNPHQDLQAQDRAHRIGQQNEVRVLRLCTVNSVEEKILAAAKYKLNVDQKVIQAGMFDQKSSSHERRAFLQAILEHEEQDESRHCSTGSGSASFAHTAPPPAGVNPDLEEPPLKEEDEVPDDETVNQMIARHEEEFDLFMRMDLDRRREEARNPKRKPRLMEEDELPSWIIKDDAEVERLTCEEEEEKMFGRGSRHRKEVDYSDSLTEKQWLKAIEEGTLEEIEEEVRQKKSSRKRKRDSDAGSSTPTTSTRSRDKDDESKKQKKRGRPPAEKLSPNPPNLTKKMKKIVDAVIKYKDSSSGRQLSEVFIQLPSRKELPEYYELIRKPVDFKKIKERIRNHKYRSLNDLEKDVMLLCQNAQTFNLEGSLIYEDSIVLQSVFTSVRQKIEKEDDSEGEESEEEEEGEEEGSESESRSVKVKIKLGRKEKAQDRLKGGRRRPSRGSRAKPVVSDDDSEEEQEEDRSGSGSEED

On to `O=C(/C=C/N1C[C@H]2C[C@@H]1CN2c1ccccn1)c1cc(F)ccc1O`, for which the outcome with MT330 [1] and in the assay on MT330 [2] was Active.

As for `O=C(/C=C/N1C[C@H]2C[C@@H]1CN2c1ccc(F)cc1)c1cc(F)ccc1O`, the outcome in the assay on MT330 [1] and in the assay with MT330 [2] was Active.

For `O=C(/C=C/N1C[C@H]2C[C@@H]1CN2c1ccc(F)cc1)c1ccccc1`, the TGI entry in the assay with MT330 [3] and in the assay on MT330 [6] was “Active” throughout. Also, the result with LN-229 [4], in the assay on LN-229 [5], in the assay on MT330 [1] and with MT330 [2] was Active.

For `O=C(/C=C/N1C[C@H]2C[C@@H]1CN2c1ccc(F)cc1)c1ccccc1O`, the outcome in the assay with MT330 [1] and with MT330 [2] was Active.

For the molecule `Cn1nnc2c(C(N)=O)ncn2c1=O`, the outcome in the assay with LN-229 [7] and in the assay with MT330 [8] was Active.

As to `O=C(/C=C/N1C[C@H]2C[C@@H]1CN2c1ccccn1)c1ccccc1Cl`, the result with MT330 [1] and in the assay on MT330 [2] was Active.

Consider `COc1ccc(N2C[C@H]3C[C@@H]2CN3/C=C/C(=O)c2cc(F)ccc2O)cc1`, for which the outcome in the assay with MT330 [1] and in the assay on MT330 [2] was Active.

As to `COc1ccc(N2C[C@H]3C[C@@H]2CN3/C=C/C(=O)c2ccccc2O)cc1`, the outcome in the assay on MT330 [1] and with MT330 [2] was Active.

As to `O=C(/C=C/N1C[C@H]2C[C@@H]1CN2c1ccccn1)c1cc(Br)cc(Br)c1O`, the TGI result in the assay with MT330 [3] and in the assay on MT330 [6] was “Active” throughout. The outcome in the assay with LN-229 [4], in the assay on LN-229 [5], in the assay with MT330 [1] and in the assay on MT330 [2] was Active.

With `O=C(/C=C/N1C[C@H]2C[C@@H]1CN2c1ccccn1)c1ccc(Cl)cc1O`, the result in the assay with MT330 [1] and in the assay on MT330 [2] was Active.

With `O=C(/C=C/N1C[C@H]2C[C@@H]1CN2c1ccccn1)c1ccccc1O`, the result (in [9]; in the assay on LN-229 [4]; in the assay on LN-229 [5]; with MT330 [1]; in the assay on MT330 [2]) was Active. Also, the TGI result in the assay on MT330 [3] and in the assay on MT330 [6] was “Active” in each case.

`COc1ccc(N2C[C@H]3C[C@@H]2CN3/C=C/C(=O)c2ccccc2Cl)cc1`: the result in the assay on MT330 [1] and in the assay on MT330 [2] was Active.

For `O=C(/C=C/N1C[C@H]2C[C@@H]1CN2c1ccc(F)cc1)c1ccccc1Cl`, the outcome in the assay on MT330 [1] and with MT330 [2] was Active.

For the molecule `O=C(/C=C/N1C[C@H]2C[C@@H]1CN2c1ccccn1)c1cc(Br)ccc1O`, the outcome in the assay with MT330 [1] and in the assay on MT330 [2] was Active.
